The target of one assay is T1, human LPA5 (Homo sapiens, UniProt Q9H1C0).
T1 construct: expressed in transfected cells; host or cells: rat hepatoma RH7777 cells, transient (Effectene)
The assay can be described thus: Ca2+ mobilization assay, LPA5 transiently transfected RH7777 cells. The format is cell-based. Particulars: for Emax at 10 µM: RH7777; for LPA5 ligand type: agonist/antagonist in words. On the procedure: Receptor activation using Ca^2+ mobilization assay for diastereomers of 1 (also represented as 19b). The rat hepatoma (RH7777) cell lines individually expressing either LPA1, LPA2, LPA3 or LPA5 receptors and Chinese hamster ovary (CHO) cell line were analyzed to examine agonism and antagonism. […] CHO cells stably expressing either vector or LPA4 were kindly gifted from Dr. Shimizu (University of Tokyo, Tokyo, Japan).
Transient transfection of LPA5. RH7777 cells in a 10-cm dish at a density of 2×10^6/dish were transfected with 2 μg of plasmid DNA with Effectene (Qiagen, Valencia, Calif.) according to the manufacturer's instructions for 24 h, then replated onto PLL-coated 96-well plates at a density of 5×10^4 cells/well and cultured overnight. The following day, the culture medium was then replaced with modified Krebs buffer, and the cells were serum starved for 4 h. Subsequently, cells were loaded with Fura-2 AM for 30 min in modified Krebs buffer containing 2% (v/v) pluronic acid.
After incubating the cells with Fura-2 AM, the cells were rinsed with Krebs buffer and changes in the intracellular Ca^2+ concentration were monitored by determining the ratio of emitted light intensities at 520 nm in response to excitation at 340 and 380 nm using FLEXstation II (Molecular Devices, Sunnyvale, Calif.). Each well was monitored for 80-120 sec. For testing agonist activity of the compounds, the test compounds were added automatically after 15 sec of baseline measurement. To determine antagonist properties, varying concentrations of the compounds were mixed with a constant concentration of LPA and responses were monitored. Each test was performed in quadruplicate. EC50, IC50, and Ki values were calculated by fitting a sigmoid function to data points with the nonlinear curve-fitting feature of KaleidaGraph (Synergy Software, Essex Junction, Vt.).
In general terms: Calcium assays in cells follow changes in intracellular calcium, usually with a dye or a luminescent sensor.

Assay [1] deals with MDA-MB-231 cells. The assay can be described thus: Orthotopic breast cancer xenograft. The format is in vivo, nude mice. The following applies: 3 mg/kg i.p., relative to control group. The method, then:
Orthotopic Human Breast Cancer Models. 4-week-old female athymic nude mice (Charles River Laboratories) were anesthetized by intraperitoneal injection of ketamine (80 mg/kg) and xylazine (10 mg/kg),according to the protocol approved by the University of Utah Institutional Animal Care and Use Committee (IACUC). Then the thoracic skin was sterilized with iodine and alcohol swabs.
MDA-MB-231 were trypsinized and resuspended in 2.5% CMHA-S and 3% gelatin-DTPH (v:v=1:1). Then, one volume of 4% PEGDA solution was added to four volumes of the cell suspension, and the resulting suspension was mixed gently by vortexing. The final cell concentration was 5×10^7 cells/ml. When the cell suspension was becoming viscous (ca. 3-5 min at 20° C.), 200 uL of gel was injected subcutaneously into the fourth mammary fat pad of each mouse, using a total of six mice per group.
The assessment of chemotherapy on breast cancer. The mice were randomly divided into 4 groups, including control (physiological saline), paclitaxel, LPA antagonist (19b), and paclitaxel followed by 19b. Six mice for each cell line were necessary to get statistically significant results according to literature. The control group received physiological saline i.p. injection twice per week starting at two weeks after the cell transplantation and ending at two weeks after the treatment. The treatment groups received i.p. administration of paclitaxel (10 mg/kg/day) or 19b (10 mg/kg/day) twice per week with the same period of control group. One additional group included 2 dose of paclitaxel followed by 2 dose of 19b with the same period of control group. The treatment was received […] twice per week for 2 weeks total.
The body weight and tumor size were measured twice per week, and general clinical status of the animals was also assessed every day. Perpendicular tumor diameters were measured using a vernier scale caliper and tumor volume estimated using the formula for ellipsoid: […] (mm^3)=[width(mm)^2×length(mm)]/2. Data are expressed as median tumor areas with interquartile ranges.
Animals were euthanized at 4 weeks postinjection or once any signs of broken skin caused by the extension of tumor are found. Tumors were excised with surrounding tissues for histological evaluation. Analysis of variance was used to analyze the statistical difference on tumor growth between different groups. The results are in FIG. 8, where it is shown that the volume of the tumors is the lowest when mice were treated with paclitaxel followed by the administration of 19b.
Xenograft establishment and chemotherapy. […] The tumor sizes were measured and calculated by formula: tumor size (mm^3)=[width (mm)]^2×[length (mm)]/2. […]

For assay [2], the system named is MDA-MB-231 cells. Description: Scratch wound healing migration assay. In kind it is cell-based. The following applies: for MDA-MB-231 cell migration in words: 10 and 40 μM, 24 h. The method, then: Inhibition of migration. MDA-MB-231 cells were plated in triplicate into six-well plates at a concentration of 3×10^5 cells per well. Approximately 48 hours later, the confluent cells were carefully scratched using sterile pipette tips. Nonadherent cells and cellular debris were removed by washing with PBS. Fresh medium with or without various concentrations of BrP-LPA 1, syn-BrP-LPA 1a, or anti-BrP-LPA 1b (1-100 μM) were added to the wounded monolayers. Cells were observed under the microscope and digitally photographed at different times. Inhibition of migration was assessed when the wound in the control was closed and quantified by using ImageJ.

Assay [3] relates to MDA-MB-231 cells. The assay can be described thus: Matrigel transwell invasion assay. The format is cell-based. The following applies: Homo sapiens, 24 h, read-out: inhibition of MDA-MB-231 invasion through Matrigel. On the procedure: Inhibition of invasion. The invasive behavior of cells was determined in vitro by using 24-well transwell inserts with an 8 μm pore size PET membrane which were coated with Matrigel basement membrane matrix. A suspension of cells (100 μL of 5×10^4) in serum-free medium with or without 10 μM syn-BrP-LPA la or anti-BrP-LPA 1b was added to triplicate inserts, and 600 μL medium supplemented with serum was used as a chemoattractant in the lower chamber. […] Ten fields of cells were counted for each well, and the mean number of cells per field was calculated. Each experiment was performed in triplicate and repeated at least twice.

Setting [4] is: transiently transfected RH7777 cells.

Three molecules from patent US8722649B2, “Alpha-chloro and alpha-bromo phosphonate analogs of lysophosphatidic acid and methods of making and using thereof” (University of Utah Research Foundation, priority 2007, dated 2014) can be followed below.

Each structure is given as a SMILES string. Entries after “also recorded” stand apart in the source; their conditions may differ.

T1 sequence (Q9H1C0 whole entry): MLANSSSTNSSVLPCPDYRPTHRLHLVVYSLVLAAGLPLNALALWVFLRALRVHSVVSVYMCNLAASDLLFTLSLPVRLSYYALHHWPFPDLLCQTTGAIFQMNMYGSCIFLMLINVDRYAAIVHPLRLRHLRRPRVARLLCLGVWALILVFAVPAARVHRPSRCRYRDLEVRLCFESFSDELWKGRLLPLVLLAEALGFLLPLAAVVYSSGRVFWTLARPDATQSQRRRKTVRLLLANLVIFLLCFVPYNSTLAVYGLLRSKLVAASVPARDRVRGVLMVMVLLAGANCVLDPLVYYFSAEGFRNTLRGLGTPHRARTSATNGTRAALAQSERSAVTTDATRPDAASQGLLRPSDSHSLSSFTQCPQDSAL

A word on the Emax: it is the greatest response seen or fitted, relative to the assay's reference. Broadly, the EC50 is the concentration at which the effect is half-maximal. For `CCCCCCCCCCCCCCCC(=O)OC[C@@H](O)CC(Br)P(=O)(O)O` (mixture of isomers) [Compound 1, [1-Bromo-3(S)-hydroxyl-4-(palmitoyloxy)butyl]-phosphonate], the Emax at 10 µM on human LPA5 worked out at 54%. Moreover, the EC50 on human LPA5 (transiently transfected RH7777 cells, NS = non-saturated) stood at 1280 nM.

As a reminder, the inhibition is the percentage by which the read-out fell short of the control. Turning to `CCCCCCCCCCCCCCCC(=O)OC[C@@H](O)C[C@@H](Br)P(=O)(O)O` [Compound 1a], in the assay on MDA-MB-231 cells [1], the “tumor volume, separate diastereomers” value is “significantly decreased the tumor volume; also recorded: reduces tumor size”. In the assay with MDA-MB-231 cells [2], the “MDA-MB-231 cell migration in words” value was “inhibited the MDA-MB-231 cell migration”. Besides, at human LPA5, the Emax at 10 µM turned out to be 64% and the LPA5 ligand type entry was “Partial Agonist”. Besides, the inhibition at 10 µM in the assay on MDA-MB-231 cells [3] is about 52%.

What is called IC50 is the concentration that inhibits the measured activity by half. What is called Ki is the equilibrium dissociation constant of an inhibitor or competing ligand from its target. Turning to `CCCCCCCCCCCCCCCC(=O)OC[C@@H](O)C[C@H](Br)P(=O)(O)O` [Compound 1b], the “tumor volume, separate diastereomers” value in the assay with MDA-MB-231 cells [1] is reported as “significantly decreased the tumor volume; also recorded: reduces tumor size”. Besides, the “decrease of MDA-MB-231 cell migration” value in the assay on MDA-MB-231 cells [2] (40 μM, compared to control, scratch wound) is reported as 57%. In addition, the “MDA-MB-231 cell migration in words” value in the assay on MDA-MB-231 cells [2] is on record as “inhibited the MDA-MB-231 cell migration”. Moreover, the LPA5 ligand type entry at human LPA5 is “showed inhibition of LPA5; also recorded: Antagonist”. Moreover, at human LPA5 (setting [4]), the IC50 was 977 nM and the Ki is 376 nM. For the same molecule, in the assay on MDA-MB-231 cells [3], the inhibition at 10 µM was about 52%.
